Source: patent US20130309695A1, “METHODS OF DIAGNOSING ASTHMA” (UNIVERSITY OF MANITOBA, priority 2010, published 2013)

Legend:
[1] = test system: PTX3 mRNA expression in human airway smooth muscle cells (HASMC); test: PTX3 mRNA expression in cultured HASMC (RT-PCR / real-time RT-PCR); assay type: cell-based
Procedure: (§1) Confluent HASMC (passages 2-5) were growth-arrested by FBS deprivation for 48 h in Ham's F-12 medium containing 5 μg/ml human recombinant insulin, 5 μg/ml human transferrin, 5 ng/ml selenium, and antibiotics (100 U/ml penicillin and 100 μg/ml streptomycin). Cells were then stimulated in fresh FBS-free medium containing graded concentration (0.1, 1, 10, and 100 ng/ml) of human TNF-α, IL-4, PTX3 or medium alone. In some experiments, cells were pretreated for 1 h with U-0126 (10 μM), SB-203580 (10 μM), or SP600125 (50 nM) before stimulation for 24 h with TNF-α (10 ng/ml), at 10 ng/ml. Supernatants were collected at 24 and 48 h, centrifuged at 1,200 rpm for 7 min at 4° C. to remove cellular debris, and stored at −80° C. until analysis by ELISA.
Confluent HASMC (passages 2-5) were growth-arrested for 48 h in serum-free medium as described above. Cells were then stimulated in fresh FBS-free medium containing human recombinant TNF-α (10 ng/ml), IL-4, or medium alone for 2, 6, and 24 h. Cells were harvested, and total cellular RNA was extracted using TRIzol® method (Invitrogen Life Technologies, Gaithersburg, Md.). The RNA concentration and purity were assessed with optical density measurements. […] Amplified products were analyzed by DNA gel electrophoresis in 2% agarose and visualized by ethidium bromide staining under ultraviolet illumination. […] The PTX3 level was quantified by scanning densitometry and corrected for GAPDH in the same sample. […]
Total cellular RNA extraction and reverse transcription was performed as described above. […] The amount of extracted DNA was quantified by spectrophotometry and expressed as copy number. […] For real-time quantitative PCR, each reaction contained the following: 1× LightCycler® DNA Master SYBR Green I (Roche), 25 mM MgCl2, 0.5 μM each primer, 0.07 μM TaqStart® Ab (Clontech), and 10 μl (1:10 for PTX3 and 1:80 for GAPDH) of cDNA, in a final volume of 25 μl. […]

PTX3 release from HASMC = test: PTX3 protein release from HASMC into the supernatant (ELISA); assay type: cell-based, human; conditions: growth-arrested HASMC, 24 h, 0.1, 1, 10 ng/ml
Procedure: as §1, with “Supernatants were collected at 24 and 48 h, centrifuged at 1,200 rpm for 7 min at 4° C. to remove cellular debris, and stored at −80° C. until analysis by ELISA.” left out
(§2) Immunoreactive PTX3 within the supernatants was quantified using ELISA with matched antibodies according to basic laboratory protocols provided by the manufacturer (R&D Systems Inc., Minneapolis, Minn.). PTX3 protein was quantified in reference to serial dilutions of recombinant standards falling within the linear part of the standard curve for each specific PTX3 measured. Each data point represents readings from a minimum of four independent assays wherein each assay was performed in duplicate.
Assessments were made of the effects of dosage and exposure time of TNF-α on HASMC. […] For both experiments, HASMC were stimulated with 0.1, 1, 10 or 100 ng/ml TNF-α, or medium alone for 24 h after which, PTX3 was measured by ELISA.

[2] = test system: TNF-α-mediated PTX3 release from HASMC; test: Effect of MAPK inhibitors on TNF-α-induced PTX3 release from HASMC (ELISA); assay type: cell-based, human; conditions: 10 μM, 1 h pretreatment, then TNF-α 10 ng/ml for 24 h
Procedure: as §1, §2
One of the major downstream pathways for TNF-α-induced cell activation is MAPKs, which play an important role in cells for inflammatory response. Growth-arrested HASMC cells were left unstimulated (medium alone) or treated with 10 ng/ml TNF-α for 24 h, with or without pretreatment for 1 h with inhibitors of JNK (SP600125 50 nM), p42/p44 ERK (U-0126, 10 μM) and p38 MAPK (SB-203580, 10 μM).

Molecule	PTX3 release from HASMC (PTX3 release from HASMC)	effect on TNF-α-induced PTX3 release [2]	other results
TNF-α	induced the release of PTX3 in a dose-dependent manner	–	fold increase of PTX3 mRNA compared with unstimulated cells ([1]; 10 ng/mL, 6 h, ratio to GAPDH, mean±SD of three experiments): 30.93±11.25 fold; time of peak PTX3 mRNA response ([1]; 10 ng/ml, stimulated 2, 6 and 24 h, real-time RT-PCR): 6 h
C[S+]([O-])c1ccc(-c2nc(-c3ccncc3)c(-c3ccc(F)cc3)[nH]2)cc1 (centres unmarked) [SB-203580, 4-(4-fluorophenyl)-2-(4-methyl-sulfinylphenyl)-5-(4′-pyridyl)-1H-imidazole]	–	no effect	–
N#CC(=C(N)Sc1ccccc1N)C(C#N)=C(N)Sc1ccccc1N [U-0126, 1,4-diamino-2,3-dicyano-1,4-bis(2-aminophenylthio)butadiene]	–	significant inhibition	effect on TNF-α-induced PTX3 release ([2]; listed as U0126): abrogate
IL-4: cytokine used to stimulate HASMC (protein, UniProt P05112 25-153, looked up) Interleukin-4: HKCDITLQEIIKTLNSLTEQKTLCTELTVTDIFAASKNTTEKETFCRAATVLRQFYSHHEKDTRCLGATAQQFHRHKQLIRFLKRLDRNLWGLAGLNSCPVKEANQSTLENFLERLKTIMREKYSKCSS	No significant PTX3 release	–	effect on PTX3 mRNA expression ([1]; 6 h, data not shown): no significant effect
